In ChEMBL document CHEMBL5104111, “Boron-Containing heterocycles as promising pharmacological agents” (Bioorg Med Chem, 2022):
In brackets after ≈: the same amount, converted by molar mass.

Tests used:
Escherichia coli [1] = experiment: Antibacterial activity against Escherichia coli expressing tolC assessed as bacterial growth inhibition by broth microdilution method; type: functional
[2] = test system: Staphylococcus epidermidis; experiment: Antibacterial activity against Staphylococcus epidermidis assessed as bacterial growth inhibition by broth microdilution method; type: functional
Plasmodium falciparum [3] = experiment: Antimalarial activity against Plasmodium falciparum W2 assessed as parasite growth inhibition; type: functional, organism-based
Plasmodium falciparum [4] = experiment: Antimalarial activity against Plasmodium falciparum 3D7 assessed as parasite growth inhibition; type: functional, organism-based
Onchocerca volvulus = experiment: Antiparasitic activity against third stage larvae of Onchocerca volvulus assessed as parasite growth inhibition incubated for 6 days by inverted microscopy; type: functional, organism-based; settings: 144 h
Trypanosoma brucei [5] = experiment: Antitrypanosomal activity against Trypanosoma brucei assessed as parasite growth inhibition; type: functional, organism-based
[6] = test system: Mycobacterium tuberculosis; experiment: Antibacterial activity against Mycobacterium tuberculosis assessed as bacterial growth inhibition by broth microdilution method; type: functional
Trypanosoma brucei [7] = experiment: Antiparasitic activity against Trypanosoma brucei 427 assessed as parasite growth inhibition incubated for 24 hrs by fluorescence based assay; type: functional, organism-based; settings: Trypanosoma brucei, 427, 24 h
Aspergillus niger [8] = experiment: Antifungal activity against Aspergillus niger assessed as fungal growth inhibition; type: functional
[9] = Inhibition of beta-lactamase P99 (unknown origin) using nitrocefin as substrate preincubated for 5 mins followed by substrate addition measured after 1 to 5 mins by colorimetry; parameters: species or system Bacteria
[10] = Inhibition of beta-lactamase CTX-M-15 (unknown origin) using nitrocefin as substrate preincubated for 5 mins followed by substrate addition measured after 1 to 5 mins by colorimetry; parameters: species or system Bacteria
[11] = Inhibition of beta-lactamase KPC-2 (unknown origin) using nitrocefin as substrate preincubated for 5 mins followed by substrate addition measured after 1 to 5 mins by colorimetry; parameters: species or system Bacteria
[12] = Inhibition of beta-lactamase OXA-24 (unknown origin) using nitrocefin as substrate preincubated for 5 mins followed by substrate addition measured after 1 to 5 mins in presence of KHCO3 by colorimetry; parameters: species or system Bacteria
[13] = Inhibition of beta-lactamase TEM-1 (unknown origin) using nitrocefin as substrate preincubated for 5 mins followed by substrate addition measured after 1 to 5 mins by colorimetry; parameters: species or system Bacteria
Plasmodium falciparum [14] = experiment: Antimalarial activity against multidrug-resistant Plasmodium falciparum W2 assessed as parasite growth inhibition incubated for 48 hrs by FACS analysis; type: functional, organism-based; settings: W2, 48 h
[15] = Dissociation constant, pKa of the compound; type: physicochemical
Hepatitis C virus = experiment: Antiviral activity against HCV GT1a316Y assessed as reduction in viral replication; type: functional, organism-based, Hepacivirus hominis
[16] = Half life in human; type: ADME
Aspergillus niger [17] = experiment: Antifungal activity against Aspergillus niger assessed as fungal growth inhibition incubated for 48 hrs by agar diffusion method; type: functional
Penicillium ochrochloron = experiment: Antifungal activity against Penicillium ochrochloron assessed as fungal growth inhibition incubated for 72 hrs by agar diffusion method; type: functional
Candida albicans = experiment: Antifungal activity against Candida albicans assessed as fungal growth inhibition incubated for 48 hrs by agar diffusion method; type: functional
[18] = target: Cyclin-dependent kinase 2 (Homo sapiens, UniProt P24941); experiment: Inhibition of CDK2 (unknown origin) using peptide substrate in presence of ATP
[19] = Tmax in Sprague-Dawley rat at 1 mg/kg, po or 1 mg/kg, iv measured upto 7 hrs by LC/MS analysis; type: ADME, organism-based; settings: in vivo
[20] = Cmax in Sprague-Dawley rat at 1 mg/kg, po or 1 mg/kg, iv measured upto 7 hrs by LC/MS analysis; type: ADME, organism-based; parameters: time < 7 hrs, dose 1 mg/kg, route po; settings: in vivo
[21] = Bioavailability in Sprague-Dawley rat […] measured upto 7 hrs by LC/MS analysis; type: ADME, organism-based; settings: in vivo
[22] = Half life in Sprague-Dawley rat at 1 mg/kg, po or 1 mg/kg, iv measured upto 7 hrs by LC/MS analysis; type: ADME, organism-based; settings: in vivo
[23] = AUC in Sprague-Dawley rat at 1 mg/kg, po measured upto 7 hrs by LC/MS analysis; type: ADME, organism-based; parameters: dose 1 mg/kg, time < 7 hrs, route po; settings: in vivo
[24] = Inhibition of Escherichia coli LeuRS using Escherichia coli tRNA as substrate incubated for 20 mins in presence of 14C-leucine/ATP
[25] = Bioavailability in monkey; type: ADME, organism-based, Macaca mulatta; settings: rhesus monkey, in vivo
Escherichia coli [26] = experiment: Antibacterial activity against Escherichia coli ATCC 25922 assessed as bacterial growth inhibition; type: functional
[27] = test system: Mycobacterium tuberculosis; experiment: Antibacterial activity against Mycobacterium tuberculosis H37Rv assessed as bacterial growth inhibition cultured in 7H9 medium measured after 14 days by absorbance based assay; type: functional; settings: 336 h, time 14 day
[28] = test system: Mycobacterium tuberculosis; experiment: Antibacterial activity against Mycobacterium tuberculosis H37Rv assessed as bacterial growth inhibition cultured in GAST medium measured after 14 days by absorbance based assay; type: functional; settings: 336 h, time 14 day
[29] = test system: Mycobacterium tuberculosis; experiment: Antibacterial activity against Mycobacterium tuberculosis H37Rv ATCC 25618 assessed as bacterial growth inhibition cultured in liquid media for 5 days by absorbance based assay; type: functional; settings: H37Rv ATCC 25618, 120 h, time 5 day
[30] = test system: Mycobacterium tuberculosis; experiment: Antibacterial activity against Mycobacterium tuberculosis H37Rv ATCC 25618 infected in human THP-1 cells assessed as bacterial growth inhibition at MOI of 1 incubated for 3 days by Cell Titer Glo assay; type: functional, organism-based; settings: H37Rv ATCC 25618, THP-1, 72 h
HepG2 = experiment: Cytotoxicity against human HepG2 cells assessed as cell growth inhibition incubated for 2 days by Cell Titer Glo assay; type: functional, cell-based; settings: HepG2, 48 h
[31] = test system: Mycobacterium tuberculosis; experiment: Antibacterial activity against Mycobacterium tuberculosis H37Rv ATCC 25618 assessed as bacterial growth inhibition cultured in solid media incubated for 3 to 4 weeks; type: functional; settings: time 3-4 weeks
[32] = target: T1, 3',5'-cyclic-AMP phosphodiesterase 4B (Homo sapiens, UniProt Q07343); experiment: Displacement of […] from full-length recombinant human PDE4B2 catalytic domain by fluorescence polarisation assay
[33] = target: T1, 3',5'-cyclic-AMP phosphodiesterase 4B; experiment: Displacement of […] from full-length recombinant human PDE4B1 by fluorescence polarisation assay
[34] = target: 3',5'-cyclic-AMP phosphodiesterase 4D (Homo sapiens, UniProt Q08499); experiment: Displacement of […] from full-length recombinant human PDE4D7 by fluorescence polarisation assay
[35] = target: T1, 3',5'-cyclic-AMP phosphodiesterase 4B; experiment: Displacement of […] from full-length recombinant human PDE4B2 by fluorescence polarisation assay
[36] = target: 3',5'-cyclic-AMP phosphodiesterase 4C (Homo sapiens, UniProt Q08493); experiment: Displacement of […] from full-length recombinant human PDE4C1 by fluorescence polarisation assay
Carbonic anhydrase 2 = Carbonic anhydrase 2 (Homo sapiens, UniProt P00918); experiment: Binding affinity to human CA-II assessed as inhibition constant preincubated for 15 mins by bromothymol blue staining based assay
[37] = Binding affinity to Candida glabrata beta-carbonic anhydrase assessed as inhibition constant preincubated for 15 mins by bromothymol blue staining based assay; parameters: species or system Nakaseomyces glabratus
[38] = Binding affinity to Cryptococcus neoformans beta-carbonic anhydrase assessed as inhibition constant preincubated for 15 mins by bromothymol blue staining based assay
Carbonic anhydrase 1 = Carbonic anhydrase 1 (Homo sapiens, UniProt P00915); experiment: Binding affinity to human CA-I assessed as inhibition constant preincubated for 15 mins by bromothymol blue staining based assay
Sequence of Carbonic anhydrase 1 (P00915 whole entry): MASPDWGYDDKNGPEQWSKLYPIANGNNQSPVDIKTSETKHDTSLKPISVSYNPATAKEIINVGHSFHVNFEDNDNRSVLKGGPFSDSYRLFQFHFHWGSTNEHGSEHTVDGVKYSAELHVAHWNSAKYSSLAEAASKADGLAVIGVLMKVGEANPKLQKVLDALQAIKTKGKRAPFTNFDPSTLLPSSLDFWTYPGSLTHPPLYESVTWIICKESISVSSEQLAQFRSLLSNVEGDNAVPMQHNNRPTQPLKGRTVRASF

T1 sequence (Q07343 whole entry, the tested form may be a part): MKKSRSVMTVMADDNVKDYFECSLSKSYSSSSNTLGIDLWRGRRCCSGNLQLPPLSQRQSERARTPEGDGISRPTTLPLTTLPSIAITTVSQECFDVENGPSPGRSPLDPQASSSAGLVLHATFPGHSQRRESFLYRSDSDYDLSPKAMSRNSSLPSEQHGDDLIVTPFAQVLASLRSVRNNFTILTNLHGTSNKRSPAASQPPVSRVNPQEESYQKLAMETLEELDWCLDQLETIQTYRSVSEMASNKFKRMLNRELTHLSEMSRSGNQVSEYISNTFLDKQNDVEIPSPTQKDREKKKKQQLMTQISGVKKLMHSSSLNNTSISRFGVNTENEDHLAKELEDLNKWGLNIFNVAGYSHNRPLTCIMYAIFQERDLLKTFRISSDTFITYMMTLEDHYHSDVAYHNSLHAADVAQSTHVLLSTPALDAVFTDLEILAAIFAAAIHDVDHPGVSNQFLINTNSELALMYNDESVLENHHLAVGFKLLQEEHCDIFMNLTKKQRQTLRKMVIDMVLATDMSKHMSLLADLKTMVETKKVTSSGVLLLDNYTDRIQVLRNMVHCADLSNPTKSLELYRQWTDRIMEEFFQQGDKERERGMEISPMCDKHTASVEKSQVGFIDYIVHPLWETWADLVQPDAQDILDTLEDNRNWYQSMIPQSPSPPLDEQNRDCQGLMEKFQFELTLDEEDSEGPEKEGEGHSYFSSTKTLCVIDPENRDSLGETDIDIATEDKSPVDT
Sequence of 3',5'-cyclic-AMP phosphodiesterase 4D (Q08499 whole entry): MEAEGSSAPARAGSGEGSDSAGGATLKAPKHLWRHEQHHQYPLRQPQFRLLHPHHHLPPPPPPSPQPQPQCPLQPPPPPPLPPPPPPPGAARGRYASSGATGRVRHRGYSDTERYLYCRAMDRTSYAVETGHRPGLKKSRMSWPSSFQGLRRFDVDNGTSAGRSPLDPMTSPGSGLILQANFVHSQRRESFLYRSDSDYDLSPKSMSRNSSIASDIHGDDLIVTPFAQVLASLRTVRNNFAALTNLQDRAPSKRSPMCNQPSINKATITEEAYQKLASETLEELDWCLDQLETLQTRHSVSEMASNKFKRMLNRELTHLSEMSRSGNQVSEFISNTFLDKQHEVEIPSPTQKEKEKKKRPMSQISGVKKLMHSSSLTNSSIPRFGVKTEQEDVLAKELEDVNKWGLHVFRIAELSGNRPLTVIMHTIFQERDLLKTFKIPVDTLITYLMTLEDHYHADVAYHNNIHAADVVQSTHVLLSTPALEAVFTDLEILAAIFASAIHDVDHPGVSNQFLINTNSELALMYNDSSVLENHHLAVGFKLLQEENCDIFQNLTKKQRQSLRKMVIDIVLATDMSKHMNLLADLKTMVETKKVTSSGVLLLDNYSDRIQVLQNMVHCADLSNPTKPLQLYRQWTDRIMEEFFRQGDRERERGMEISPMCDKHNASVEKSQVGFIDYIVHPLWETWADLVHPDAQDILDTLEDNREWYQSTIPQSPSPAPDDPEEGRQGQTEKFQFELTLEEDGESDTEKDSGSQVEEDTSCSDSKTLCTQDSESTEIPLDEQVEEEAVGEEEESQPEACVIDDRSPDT
Sequence of 3',5'-cyclic-AMP phosphodiesterase 4C (Q08493 whole entry): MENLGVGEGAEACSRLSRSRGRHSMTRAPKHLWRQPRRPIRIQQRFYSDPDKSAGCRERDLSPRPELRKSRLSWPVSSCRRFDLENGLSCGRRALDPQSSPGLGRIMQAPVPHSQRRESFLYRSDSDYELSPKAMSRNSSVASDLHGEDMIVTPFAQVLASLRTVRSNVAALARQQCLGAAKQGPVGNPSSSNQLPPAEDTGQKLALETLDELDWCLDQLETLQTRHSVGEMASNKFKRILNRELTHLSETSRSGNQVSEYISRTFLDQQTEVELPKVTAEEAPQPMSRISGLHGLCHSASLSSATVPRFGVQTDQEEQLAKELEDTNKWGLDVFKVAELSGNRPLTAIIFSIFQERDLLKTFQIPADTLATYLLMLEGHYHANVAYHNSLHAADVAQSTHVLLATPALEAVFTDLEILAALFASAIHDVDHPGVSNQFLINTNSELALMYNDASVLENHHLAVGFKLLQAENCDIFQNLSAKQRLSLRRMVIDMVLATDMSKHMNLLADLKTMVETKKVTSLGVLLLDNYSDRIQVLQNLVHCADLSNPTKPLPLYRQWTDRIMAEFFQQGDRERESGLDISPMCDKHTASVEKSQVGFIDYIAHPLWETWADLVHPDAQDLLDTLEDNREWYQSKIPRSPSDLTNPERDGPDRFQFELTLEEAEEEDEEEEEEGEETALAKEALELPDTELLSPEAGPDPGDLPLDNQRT

## CC[C@H]1OC(=O)[C@H](C)[C@@H](O[C@H]2C[C@@](C)(OC)[C@@H](O)[C@H](C)O2)[C@H](C)[C@@H](O[C@@H]2O[C@H](C)C[C@H](N(C)C)[C@H]2O)[C@](C)(OC)C[C@@H](C)/C(=N\OCC(=O)NC[C@H]2OB(O)c3ccccc32)[C@H](C)[C@@H](O)[C@]1(C)O
Escherichia coli [1]
  MIC: 8 µg/mL (≈ 8.28 µM)
[2]
  MIC: 0.5 µg/mL (≈ 0.518 µM)

## Cc1c(Oc2cnc(C(=O)N3CC(C)(O)C3)cn2)ccc2c1B(O)OC2
Plasmodium falciparum [3]
  IC50: 33 µM
Plasmodium falciparum [4]
  IC50: 43 µM

## COC(=O)Nc1nc2cc(C(=O)NCc3ccc4c(c3)B(O)OC4(C)C)ccc2[nH]1
Onchocerca volvulus
  IC50: 300 nM

## O=C(/C=C/c1ccc2c(c1)OCO2)Nc1ccc2c(c1)B(O)OC2
Trypanosoma brucei [5]
  IC50: 100 nM
[6]
  MIC99: 40.7 µM (≈ 13.2 µg/mL)
Trypanosoma brucei [7]
  IC50: 86 nM

## OB1OC(N2CCN(c3ccc(F)cc3)CC2)c2ccccc21 (stereo not given)
Aspergillus niger [8]
  MIC: 62.5 µg/mL (≈ 200 µM)

## Cc1c(Oc2nc(N)ns2)cc2c(c1C)[C@@H](CC(=O)O)OB2O
[9]
  IC50: 12 nM
[10]
  IC50: < 5 nM
[11]
  IC50: 26 nM
[12]
  IC50: 88 nM
[13]
  IC50: < 5 nM

## CCOc1ccc(Br)c2c1B(O)O[C@@H]2CC
Plasmodium falciparum [14]
  IC50: 490 nM

## CNC(=O)c1c(-c2ccc(F)cc2)oc2cc(N(c3cc(Cl)c4c(c3)COB4O)S(C)(=O)=O)c(C3CC3)cc12
[15]
  pKa: 5.4
Hepatitis C virus
  EC50: 32 nM
[16]
  half-life: 2.5 days

## OB1OC(N2CCN(C3OB(O)c4cccc(F)c43)CC2)c2c(F)cccc21 (stereo not given)
Aspergillus niger [17]
  inhibition zone (IZ): 41 mm
Penicillium ochrochloron
  inhibition zone (IZ): 41 mm
Candida albicans
  inhibition zone (IZ): 35 mm

## O=C(Cc1ccc(B2C=CC=CN2)cc1)Nc1cc(C2CC2)[nH]n1
[18]
  IC50: 87 nM
[19]
  Tmax: 1.5 h
[20]
  Cmax: 746 nM
[21]
  bioavailability: 29.3%
[22]
  half-life: 696 min
[23]
  AUC at 7 h: 0.613 µM·h

## Cl.NC[C@H]1OB(O)c2c1ccc1c2OCO1
[24]
  IC50: 380 nM
[25]
  bioavailability: 100%
Escherichia coli [26]
  MIC: 1 µg/mL

## Nc1cc2c(cc1Br)COB2O
[27]
  MIC99: 7.8 µM (≈ 1.78 µg/mL)
[28]
  MIC99: 1.9 µM (≈ 0.433 µg/mL)

## Cc1c(OCc2ccccc2)ccc2c1B(O)OC2
[29]
  MIC: 2 µM (≈ 0.508 µg/mL)
[30]
  IC50: 3.6 µM
HepG2
  IC50: > 100 µM
[31]
  MIC: 0.8 µM (≈ 0.203 µg/mL)

## CC(C)OCCOc1ncc(Oc2ccc3c(c2)B(O)OC3)cc1C#N
[32]
  IC50: 2.1 nM
[33]
  IC50: 2.1 nM
[34]
  IC50: 2.1 nM
[35]
  IC50: 2.1 nM
[36]
  IC50: 2.1 nM

## O=[N+]([O-])c1ccc(NC(=S)Nc2ccc3c(c2)B(O)OC3)cc1
Carbonic anhydrase 2
  Ki: 504 nM
[37]
  Ki: 89 nM
[38]
  Ki: 88 nM
Carbonic anhydrase 1
  Ki: 6.35 µM
